Measured values from patent US11420970B1 (NOVARTIS AG, priority 2019, dated 2022).
pIC50: −log10 of the molar value. Where two headings read alike, the source gives them in different places.

How the values were obtained:
[1] = molecular target: NSD2 [1-1365] (Homo sapiens (Human), UniProt O96028); assay: LC-MS/MS-based NSD2 enzymatic assay (SAH production); format: biochemical; details: read-out: NSD2 IC50
How it was run: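 Full-length NSD2 [1-1365] (8 nM final) with 1 μM SAM and 400 nM mouse-liver nucleosome in Tris pH 8.0 buffer; inhibitor preincubated 20 min with enzyme/SAM before nucleosome addition. Reaction 90 min at room temperature, TFA-quenched; SAH quantified by LC-MS/MS against d4-SAH internal standard and SAH standard curve.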

[2] = system: cellular H3K36me2 level in thyroid carcinoma cell line CGTH-W-1 (NSD2 E1099K); assay: H3K36me2 cellular ELISA assay in CGTH-W-1 line; format: cell-based; details: Homo sapiens, CGTH-W-1, 72 h, read-out: H3K36me2 ELISA in CGTH-W-1
Experimental: H3K36Me2 Cellular ELISA Assay in CGTH-W-1 Line
An ELISA (enzyme-linked immunosorbent assay) based assay was used to test the ability of candidate compound to reduce cellular H3K36me2 level in thyroid carcinoma cell line CGTH-W-1, carrying NSD2 E1099K gain of function mutation. CGTH-W-1 (DSMZ) cells are maintained in RPM11640 media with 10% FBS and 50 U/ml Penicillin-Streptomycin.
Cells were treated with tested compounds at the desired concentration for 72 hours.
Histone bound plates were washed and blocked with 5% BSA. […] The abundance of H3K36me2 and total H3 was measured by Chemiluminesce on a plate reader. Cell viability was monitored on a parallel seeded plate with CellTiter-Glo reagent (Promega #G7573).

[3] = system: cellular H3K36me2 level in multiple myeloma cell line KMS11 (t(4;14)+); assay: H3K36me2 cellular ELISA assay in KMS11-Par line; format: cell-based; details: Homo sapiens, KMS-11, ELISA, read-out: H3K36me2 ELISA in KMS11-Par
How it was run: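 KMS11 cells were seeded a day ahead at 1,250 per well in Opti-MEM with B-27/N2, then treated with compound for 72 h. Histones were acid-extracted with 0.4M HCl, and H3K36me2 and total H3 were read by chemiluminescent ELISA. Viability was checked with CellTiter-Glo on a parallel plate in maintenance media.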

[4] = NSD2 biochemical activity, class symbols
[5] = KMS11-Par line (t(4;14)+), 72 hours treatment

Chain of NSD2 [1-1365] (O96028 whole entry): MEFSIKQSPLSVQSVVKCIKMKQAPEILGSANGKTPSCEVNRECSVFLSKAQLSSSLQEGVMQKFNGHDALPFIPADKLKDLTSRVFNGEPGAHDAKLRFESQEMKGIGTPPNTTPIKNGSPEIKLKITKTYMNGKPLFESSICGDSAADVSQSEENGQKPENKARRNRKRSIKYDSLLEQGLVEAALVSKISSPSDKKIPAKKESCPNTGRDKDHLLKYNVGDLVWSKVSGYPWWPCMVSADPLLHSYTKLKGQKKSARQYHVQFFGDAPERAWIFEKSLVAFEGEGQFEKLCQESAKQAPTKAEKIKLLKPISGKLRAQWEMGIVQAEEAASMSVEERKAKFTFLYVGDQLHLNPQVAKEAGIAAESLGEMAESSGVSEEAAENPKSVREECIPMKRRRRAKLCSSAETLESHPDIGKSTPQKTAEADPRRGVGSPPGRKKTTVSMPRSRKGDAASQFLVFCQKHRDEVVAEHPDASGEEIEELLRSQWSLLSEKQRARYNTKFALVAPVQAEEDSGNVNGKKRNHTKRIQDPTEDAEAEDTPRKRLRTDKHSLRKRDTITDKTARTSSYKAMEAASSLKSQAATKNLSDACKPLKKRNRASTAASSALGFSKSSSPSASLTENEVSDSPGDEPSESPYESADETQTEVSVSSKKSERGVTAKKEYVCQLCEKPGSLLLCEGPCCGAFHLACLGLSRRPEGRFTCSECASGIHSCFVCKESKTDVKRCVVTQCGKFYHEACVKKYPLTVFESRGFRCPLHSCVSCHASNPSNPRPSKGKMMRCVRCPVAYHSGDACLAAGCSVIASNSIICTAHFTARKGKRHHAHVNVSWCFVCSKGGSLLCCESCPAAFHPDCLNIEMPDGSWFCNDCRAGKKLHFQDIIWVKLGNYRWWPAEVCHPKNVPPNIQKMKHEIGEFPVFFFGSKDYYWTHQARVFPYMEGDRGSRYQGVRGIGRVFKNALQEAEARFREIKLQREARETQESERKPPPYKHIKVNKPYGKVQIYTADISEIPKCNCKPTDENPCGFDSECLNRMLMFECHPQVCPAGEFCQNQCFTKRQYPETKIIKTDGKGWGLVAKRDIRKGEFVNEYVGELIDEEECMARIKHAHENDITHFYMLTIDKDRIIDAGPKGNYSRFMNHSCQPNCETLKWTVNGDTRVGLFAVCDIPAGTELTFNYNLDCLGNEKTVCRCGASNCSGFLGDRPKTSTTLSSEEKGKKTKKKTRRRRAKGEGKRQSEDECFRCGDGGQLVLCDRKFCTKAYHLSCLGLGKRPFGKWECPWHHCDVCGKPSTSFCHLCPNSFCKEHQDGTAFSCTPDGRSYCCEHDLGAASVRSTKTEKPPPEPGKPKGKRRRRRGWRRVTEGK

SMILES | pIC50 [1, 4] | pIC50 [2] | pIC50 [3, 5] | pIC50 [1] | pIC50 ([3]; KMS11-Par line, 72 hours)
COc1c(F)cc(-c2cc(Cn3cnc4c(N)ncnc43)c(N3CCC[C@](N)(C(O)C(F)F)C3)cn2)cc1F (stereo in doubt) [Example 164, (R)-1-((R)-3-amino-1-(4-((6-amino-9H-purin-9-yl)methyl)-6-(3,5-difluoro-4-methoxyphenyl)pyridin-3-yl)piperidin-3-yl)-2,2-difluoroethan-1-ol] | 8.00 to 9.00 | 6.89 | 5.97 | – | –
COc1c(F)cc(-c2cc(Cn3cnc4c(N)ncnc43)c(N3CCC[C@](N)(C(O)C(F)F)C3)cn2)cc1F (stereo in doubt) [Example 165, (S)-1-((R)-3-amino-1-(4-((6-amino-9H-purin-9-yl)methyl)-6-(3,5-difluoro-4-methoxyphenyl)pyridin-3-yl)piperidin-3-yl)-2,2-difluoroethan-1-ol] | 8.00 to 9.00 | 6.66 | 5.97 | – | –
COc1ccc(-c2cc(Cn3cnc4c(N)ncnc43)c(N3CCC[C@](N)(C(O)C(F)F)C3)cn2)c(C(F)(F)F)c1 (stereo in doubt) [Example 166, (S)-1-((R)-3-amino-1-(4-((6-amino-9H-purin-9-yl)methyl)-6-(4-methoxy-2-(trifluoromethyl)phenyl)pyridin-3-yl)piperidin-3-yl)-2,2-difluoroethan-1-ol] | 8.00 to 9.00 | 6.36 | 5.07 | – | –
COc1ccc(-c2cc(Cn3cnc4c(N)ncnc43)c(N3CCC[C@](N)(C(O)C(F)F)C3)cn2)c(C(F)(F)F)c1 (stereo in doubt) [Example 167, (R)-1-((R)-3-amino-1-(4-((6-amino-9H-purin-9-yl)methyl)-6-(4-methoxy-2-(trifluoromethyl)phenyl)pyridin-3-yl)piperidin-3-yl)-2,2-difluoroethan-1-ol] | – | 6.25 | – | 6.00 to 8.00 | 5.21
Nc1ncnc2c1ncn2Cc1cc(-c2ccc(F)c(F)c2)ncc1N1CC[C@@H](O)[C@@H](N)C1 [Example 3, (3S,4R)-3-amino-1-(4-((6-amino-9H-purin-9-yl)methyl)-6-(3,4-difluorophenyl)pyridin-3-yl)piperidin-4-ol] | 6.00 to 8.00 | 5.08 | 4.48 | – | –
Cn1ccc(C[C@@]2(N)CCCN(c3cnc(-c4ccc(F)c(F)c4)cc3Cn3cnc4c(N)ncnc43)C2)n1 [Example 56, (S)-9-((5-(3-amino-3-((1-methyl-1H-pyrazol-3-yl)methyl)piperidin-1-yl)-2-(3,4-difluorophenyl)pyridin-4-yl)methyl)-9H-purin-6-amine] | 8.00 to 9.00 | 6.56 | 6.63 | – | –
CNC(=O)[C@@]1(N)CCCN(c2cnc(-c3cccc(F)c3)cc2Cn2cnc3c(N)ncnc32)C1 [Example 78, (R)-3-amino-1-(4-((6-amino-9H-purin-9-yl)methyl)-6-(3-fluorophenyl)pyridin-3-yl)-N-methylpiperidine-3-carboxamide] | 8.00 to 9.00 | 7.92 | 7.11 | – | –
Nc1ncnc2c1ncn2Cc1cc(-c2ccc(F)c(F)c2)ncc1N1CCCC(N)(C(=O)NC2CCOC2)C1 (stereo not shown) [Example 85, 3-amino-1-(4-((6-amino-9H-purin-9-yl)methyl)-6-(3,4-difluorophenyl)pyridin-3-yl)-N-(tetrahydrofuran-3-yl)piperidine-3-carboxamide] | 6.00 to 8.00 | 5.68 | 5.19 | – | –
Nc1ncnc2c1ncn2Cc1cc(-c2ccc(F)c(F)c2)ncc1N1CCCC(N)(C(=O)N2CCCCC2)C1 (stereo not shown) [Example 86, (3-amino-1-(4-((6-amino-9H-purin-9-yl)methyl)-6-(3,4-difluorophenyl)pyridin-3-yl)piperidin-3-yl)(piperidin-1-yl)methanone] | 6.00 to 8.00 | 5.06 | 4.48 | – | –
CC1CCCCN1C(=O)C1(N)CCCN(c2cnc(-c3ccc(F)c(F)c3)cc2Cn2cnc3c(N)ncnc32)C1 (stereo not shown) [Example 87, (3-amino-1-(4-((6-amino-9H-purin-9-yl)methyl)-6-(3,4-difluorophenyl)pyridin-3-yl)piperidin-3-yl)(2-methylpiperidin-1-yl)methanone] | 6.00 to 8.00 | 5.80 | 5.19 | – | –
CC(C)C(C)C(=O)C1(N)CCCN(c2cnc(-c3ccc(F)c(F)c3)cc2Cn2cnc3c(N)ncnc32)C1 (stereo not shown) [Example 89, 1-(3-amino-1-(4-((6-amino-9H-purin-9-yl)methyl)-6-(3,4-difluorophenyl)pyridin-3-yl)piperidin-3-yl)-2,3-dimethylbutan-1-one] | 6.00 to 8.00 | 6.61 | 6.16 | – | –
COc1ccc(-c2cc(Cn3cnc4c(N)ncnc43)c(N3CCC[C@](N)([C@@H](C)O)C3)cn2)cc1F [Example 90, (R)-1-((R)-3-amino-1-(4-((6-amino-9H-purin-9-yl)methyl)-6-(3-fluoro-4-methoxyphenyl)pyridin-3-yl)piperidin-3-yl)ethan-1-ol] | 8.00 to 9.00 | 6.62 | 6.36 | – | –
Nc1ncnc2c1ncn2Cc1cc(-c2ccc(F)c(F)c2)ncc1N1CCC[C@](N)([C@H](F)c2ccccn2)C1 [Example 91, 9-((5-((R)-3-amino-3-((S)-fluoro(pyridin-2-yl)methyl)piperidin-1-yl)-2-(3,4-difluorophenyl)pyridin-4-yl)methyl)-9H-purin-6-amine] | 8.00 to 9.00 | 6.92 | 6.05 | – | –
COc1ccc(-c2cc(Cn3cnc4c(N)ncnc43)c(N3CCC[C@](N)([C@H](C)O)C3)cn2)cc1F [Example 92, (S)-1-((R)-3-amino-1-(4-((6-amino-9H-purin-9-yl)methyl)-6-(3-fluoro-4-methoxyphenyl)pyridin-3-yl)piperidin-3-yl)ethan-1-ol] | 8.00 to 9.00 | 5.68 | 5.31 | – | –
Cn1ncc2cc(-c3cc(Cn4cnc5c(N)ncnc54)c(N4CCCC(N)(c5cccc(Cl)n5)C4)cn3)ccc21 (stereo not shown) [Example 225, 9-((5-(3-amino-3-(6-chloropyridin-2-yl)piperidin-1-yl)-2-(1-methyl-1H-indazol-5-yl)pyridin-4-yl)methyl)-9H-purin-6-amine] | – | 5.71 | – | 6.00 to 8.00 | –
Nc1ncnc2c1ncn2Cc1cc(-c2ccc(OC(F)F)c(F)c2)ncc1N1CCCC(N)(c2cccc(Cl)n2)C1 (stereo not shown) [Example 228, 9-((5-(3-amino-3-(6-chloropyridin-2-yl)piperidin-1-yl)-2-(4-(difluoromethoxy)-3-fluorophenyl)pyridin-4-yl)methyl)-9H-purin-6-amine] | – | 6.21 | – | 6.00 to 8.00 | –
Nc1ncnc2c1ncn2Cc1cc(-c2ccc(F)c(F)c2)ncc1N1CCCC(N)(c2cccnn2)C1 (stereo not shown) [Example 253, 9-((5-(3-amino-3-(pyridazin-3-yl)piperidin-1-yl)-2-(3,4-difluorophenyl)pyridin-4-yl)methyl)-9H-purin-6-amine] | – | 6.45 | – | 6.00 to 8.00 | –
Nc1ncnc2c1ncn2Cc1cc(-c2ccc(F)c(F)c2)ncc1N1CCCC(N)(c2ccncn2)C1 (stereo not shown) [Example 255, 9-((5-(3-amino-3-(pyrimidin-4-yl)piperidin-1-yl)-2-(3,4-difluorophenyl)pyridin-4-yl)methyl)-9H-purin-6-amine] | – | 6.63 | – | 6.00 to 8.00 | –
Cc1cncc([C@@]2(N)CCCN(c3cnc(-c4ccc(F)c(F)c4)cc3Cn3cnc4c(N)ncnc43)C2)n1 [Example 258, (R)-9-((5-(3-amino-3-(6-methylpyrazin-2-yl)piperidin-1-yl)-2-(3,4-difluorophenyl)pyridin-4-yl)methyl)-9H-purin-6-amine] | – | 6.36 | – | 6.00 to 8.00 | –
Nc1ncnc2c1ncn2Cc1cc(-c2ccc(F)cc2)ncc1N1CCCC(N)(c2csc(Cl)n2)C1 (stereo not shown) [Example 281, 9-((5-(3-amino-3-(2-chlorothiazol-4-yl)piperidin-1-yl)-2-(4-fluorophenyl)pyridin-4-yl)methyl)-9H-purin-6-amine] | – | 6.08 | – | 6.00 to 8.00 | –
Cn1cc(C2(N)CCCN(c3cnc(-c4ccc(F)c(F)c4)cc3Cn3cnc4c(N)ncnc43)C2)nn1 (stereo not shown) [Example 282, 9-((5-(3-amino-3-(1-methyl-1H-1,2,3-triazol-4-yl)piperidin-1-yl)-2-(3,4-difluorophenyl)pyridin-4-yl)methyl)-9H-purin-6-amine] | – | 5.82 | – | 6.00 to 8.00 | –
COc1ccc(-c2cc(Cn3cnc4c(N)ncnc43)c(N3C[C@H](N)C[C@@H](CF)C3)cn2)cc1F [Example 306, 9-((5-((3R,5R)-3-amino-5-(fluoromethyl)piperidin-1-yl)-2-(3-fluoro-4-methoxyphenyl)pyridin-4-yl)methyl)-9H-purin-6-amine] | – | 5.19 | – | 6.00 to 8.00 | –
